Measured values taken from US6610646B2, “Enhanced duration fragrance delivery system having a non-distorted initial fragrance impression” (The Procter & Gamble Company, priority 2000, dated 2003).

Assays:
[1] = Olfactory Intensity grading of solutions in DPG by expert panel, Initial Determination; parameters: species or system human
Text: (§1) To determine the ODC and the OSC for a given fragrance raw material f, an Olfactory Intensity vs. Log Concentration curve is constructed. This process is comprised of both an initial and a final determination.
Olfactory Intensity is graded for each solution from 0 to 100 by a panel of at least three expert graders composed of average artisans of ordinary skill in perfume formulation. The Olfactory Intensity at any concentration is taken to be the mean of the individual grades at that concentration. Table I below gives Olfactory Intensity grades determined in this manner for two common fragrance raw materials at three different weight percent concentration in DPG.
The Initial Determination gives the general shape of the curve and is used to establish which of the nine concentrations (Entries 1-9 in Table II) will be used for the starting fragrance raw material concentration, [f]start, and which will be used for the upper concentration limit, [f]limit, in the Final Determination. The highest concentration of fragrance raw material that gives an Olfactory Intensity below 5 is chosen as the starting concentration for the Final Determination. In the example given, [f]start is 0.00001 wt. % of 2,6-dimethyl-5-heptenal in DPG (Table II, Entry 3). The lowest concentration of fragrance raw material above [f]start for which the Olfactory Intensity of the two immediately adjacent concentrations are separated by less than 5 is chosen as the upper concentration limit for the Final Determination. In the example given, [f]limit is 0.10 wt. % of 2,6-dimethyl-5-heptenal in DPG (Table II, Entry 7).

[2] = Olfactory Intensity grading of solutions in DPG by expert panel, Final Determination (ODC and OSC); parameters: species or system human; conditions: for Olfactory Intensity: Final Determination, scale 0 to 100
Text: Odor Detection Concentration, vD: The odor detection concentration (ODC) is defined herein as the lowest weight percent concentration of a fragrance raw material dissolved in dipropylene glycol (DPG) at which the average artisan of ordinary skill in perfume formulation can detect a fragrance raw material olfactory intensity of 10 on a scale of intensity ranging from 0 to 100.
Odor Saturation Concentration, vS: The odor saturation concentration (OSC) is defined herein as the amount of fragrance raw material, expressed as weight percent dissolved in DPG, beyond which no further odor impression is provided as measured by the average artisan of ordinary skill in perfume formulation.
as §1
Final Determination: In constructing the final curve, multiples of said starting concentration are used. The concentrations used are the starting concentration, [f]start=1c, and the multiples 5c, 10c, 20c, 40c, 80c, 160c, 320c, 640c, 1280c, 2560c, 5120c, 1024c, 2048c, 4096c, etc., up to and including the point where the multiple first surpasses [f]limit. Olfactory Intensity is graded for each solution from 0 to 100 by a panel of at least three expert graders composed of average artisans of ordinary skill in perfume formulation. The Olfactory Intensity at any concentration is taken to be the mean of the individual grades at that concentration.
The Final Determination yields values for the ODC and the OSC. The odor detection concentration (ODC) is defined herein as the lowest weight percent concentration, above [f]start, of a fragrance raw material dissolved in dipropylene glycol (DPG) at which the fragrance raw material olfactory intensity is 10 on a scale of intensity ranging from 0 to 100. The determination may require linear interpolation between two consecutive concentrations where one has an olfactory intensity below 10 and the other above 10. For 2,6-dimethyl-5-heptenal, the ODC as determined above is 0.0001 wt. % (Table III, Entry 3). The odor saturation concentration (OSC) is defined as the lowest concentration of a fragrance raw material above the ODC for which the Olfactory Intensity of the two immediately adjacent concentrations are separated by less than 5. For 2,6-dimethyl-5-heptenal, the OSC as determined above is 0.0256 wt. % (Table III, Entry 11).

[3] = 0.0005 wt. % in DPG, scale 0 to 100, mean of panel grades

In the case of `CC=CC(=O)C1C(C)C=CCC1(C)C` (stereo not drawn) [1-(2,6,6-trimethyl-3-cyclohexen-1-yl)-2-buten-1-one], the “Olfactory Intensity” value ([1]; 0.00004 wt. % in DPG, scale 0 to 100, mean of panel grades) was 30, the “Olfactory Intensity” value ([1]; 0.00009 wt. % in DPG, scale 0 to 100, mean of panel grades) was 50 and the “Olfactory Intensity” value [1, 3] was 70.
With `CC1=CC(C)C(C=O)CC1` (stereo not drawn) [2,4-dimethyl-3-cyclohexene-1-carboxaldehyde] the “Olfactory Intensity” value [1, 3] was 30, the “Olfactory Intensity” value ([1]; 0.001 wt. % in DPG, scale 0 to 100, mean of panel grades) was 50 and the “Olfactory Intensity” value ([1]; 0.003 wt. % in DPG, scale 0 to 100, mean of panel grades) was 70.
For `CC(C)=CCCC(C)C=O` (stereo not drawn) [2,6-dimethyl-5-heptenal], the “Olfactory Intensity” value ([1]; Initial Determination, 0.0000001 wt. % in DPG, scale 0 to 100) was 0, the “Olfactory Intensity” value ([1]; Initial Determination, 0.000001 wt. % in DPG, scale 0 to 100) was 0 and the “Olfactory Intensity” value ([1]; Initial Determination, 0.00001 wt. % in DPG, scale 0 to 100) was 0. For the same compound, the “Olfactory Intensity” value ([1]; Initial Determination, 0.0001 wt. % in DPG, scale 0 to 100) was 10, the “Olfactory Intensity” value ([1]; Initial Determination, 0.001 wt. % in DPG, scale 0 to 100) was 55 and the “Olfactory Intensity” value ([1]; Initial Determination, 0.01 wt. % in DPG, scale 0 to 100) was 81. The “Olfactory Intensity” value ([1]; Initial Determination, 0.1 wt. % in DPG, scale 0 to 100) was 83, the “Olfactory Intensity” value ([1]; Initial Determination, 1.0 wt. % in DPG, scale 0 to 100) was 84 and the “Olfactory Intensity” value ([1]; Initial Determination, 10.0 wt. % in DPG, scale 0 to 100) was 84. For the same compound, the “Olfactory Intensity” value ([2]; 0.00001 wt. % in DPG) was 0, the “Olfactory Intensity” value ([2]; 0.00005 wt. % in DPG) was 6 and the “Olfactory Intensity” value ([2]; 0.0001 wt. % in DPG) was 10. The “Olfactory Intensity” value ([2]; 0.0002 wt. % in DPG) was 19, the “Olfactory Intensity” value ([2]; 0.0004 wt. % in DPG) was 33 and the “Olfactory Intensity” value ([2]; 0.0008 wt. % in DPG) was 50. For the same compound, the “Olfactory Intensity” value ([2]; 0.0016 wt. % in DPG) was 64, the “Olfactory Intensity” value ([2]; 0.0032 wt. % in DPG) was 74 and the “Olfactory Intensity” value ([2]; 0.0064 wt. % in DPG) was 78. For the same compound, the “Olfactory Intensity” value ([2]; 0.0128 wt. % in DPG) was 81, the “Olfactory Intensity” value ([2]; 0.0256 wt. % in DPG) was 83 and the “Olfactory Intensity” value ([2]; 0.0512 wt. % in DPG) was 83. For the same compound, the “Olfactory Intensity” value ([2]; 0.1024 wt. % in DPG) was 84, the “odor saturation concentration (OSC)” value ([2]; lowest concentration in DPG above the ODC where intensities of the two adjacent concentrations differ by less than 5) was 0.0256 wt. % and the “odor detection concentration (ODC)” value ([2]; lowest concentration in DPG with olfactory intensity 10 on a scale 0 to 100) was 0.0001 wt. %.
